We go through 72 compounds from PubChem BioAssay AID179 (DTP/NCI, 2004).

The source made the active and inactive calls.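 Rule for the calls: active = compounds giving half or more protection of infected cells from virus-caused growth loss, again on retest; inactive = the rest.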

This test concerns CEM cells HIV-1 protection, formazan growth assay. Description: NCI AIDS Antiviral Assay. Particulars: for IC50: measured here: growth of uninfected CEM cells. A digest of the protocol:
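Category rules: moderately active means at least 50% protection on retest, and confirmed active means 100% protection reproducibly. The underlying data came from a formazan growth assay in HIV-1-infected CEM cells.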

In the case of `Cc1nc2sc(C(=O)c3ccc(Cl)cc3)c(N)c2c(-c2ccccc2Cl)c1C(=O)Nc1ccccc1`, the EC50 is more than 200 µM and the IC50 is 3.02 µM. `COc1c(OC)c(N)c2cc(C)c(=O)c(C)cc2c1N`: the EC50 is more than 240 µM and the IC50 came out at 56.2 µM. Turning to `CC(C(=O)COCc1ccccc1)P1(=O)OC(C)(C)CN1C(C)(C)C` (stereo not drawn), the EC50 was more than 200 µM and the IC50 is 132 µM.

Take `CCCCc1ccc(-n2sc3ncc(-c4ccccc4)cc3c2=O)cc1`: the EC50 is 95.5 µM and the half-inhibitory concentration (IC50) was 117 µM. Regarding `Cc1nc2cc3c(cc2n2cccc12)oc1ccccc13`, the EC50 is more than 44.7 µM and the half-inhibitory concentration (IC50) came to 35.5 µM. For `CCc1n[nH]c(=O)n1-c1ccncc1`, in that order: more than 200 µM and more than 200 µM. Consider `Cn1c(O)c(N=NC(=O)Cc2c[nH]c3ccccc23)c2ccccc21`, for which the EC50 was more than 200 µM and the half-maximal inhibitory concentration (IC50) is more than 200 µM. Turning to `COc1ccc(N(C)CN(C)c2nc(N(C)C)nc(N(C)C)n2)cc1`, the EC50 was more than 200 µM and the half-inhibitory concentration (IC50) was 36.3 µM. For `O=C(NC1C/C(=N/O)c2c(Br)sc(Br)c21)C(F)(F)F` (stereo not drawn), in that order: more than 200 µM and 53.7 µM. For `O=C1[C@H](c2ccccc2)C2c3ccccc3CCN12` (stereo partly drawn), in that order: more than 200 µM and 97.7 µM. For `O=C(CCc1nnc2s/c(=C\c3ccccc3Cl)c(=O)n12)Nc1cc(Cl)ccc1Cl`, in that order: more than 525 µM and more than 525 µM.

On to `CC[C@@]1(OP(=O)(O)O)C(=O)OCc2c1cc1n(c2=O)Cc2cc3ccccc3nc2-1`, for which the EC50 was more than 10 µM and the 50% inhibitory concentration (IC50) was 0.0263 µM.

On to `CCCNC(=S)/N=C\c1c(O)c2ccccc2oc1=O`, for which the EC50 is more than 200 µM and the IC50 was more than 200 µM. Regarding `O=S1c2ccccc2N=C(c2ccc3ccccc3c2)CC1C1=CC=CCC1` (stereo not drawn), the EC50 was more than 18.6 µM and the IC50 is more than 18.6 µM. Turning to `OCC(O)C(O)C(O)c1nn(-c2ccc(Cl)cc2)c2nc3cc(Cl)c(Cl)cc3nc12` (stereo not drawn), the result was inactive. In the case of `CC(C)=CCC[C@@H](C)/C=C/C=C(\C)C(=O)CC[C@@H]1CC[N@+]2(C)CCCC[C@H]12`, the EC50 is more than 200 µM and the IC50 stood at 46.8 µM. In the case of `O=C(O)CCC1CCc2cccc(OCC(=O)O)c2C1=O` (stereo not drawn), the result was inactive.

Take `CC(C)(C)N=P(c1ccccc1)(c1ccccc1)c1ccccc1`: the EC50 is more than 200 µM and the IC50 amounted to 191 µM. The like results for `CC1(Nc2ccccc2)OC(=O)c2ccccc21` (stereo not drawn) were, in that order, more than 200 µM and more than 200 µM. Consider `O=C1[C@@H]2C(c3ccccn3)=NO[C@@H]2C(=O)N1c1ccc(Cc2ccc(N3C(=O)[C@H]4C(c5ccccn5)=NO[C@H]4C3=O)cc2)cc1`, for which the EC50 is more than 8.71 µM and the IC50 was more than 8.71 µM. Turning to `O=C(CCc1cc(O)cc(O)c1)NCCCNC(=O)CCc1cc(O)cc(O)c1`, the EC50 was more than 200 µM and the IC50 is more than 200 µM.

For `CC(C)CC(NC(=O)C(C)(CI)Cc1ccccc1)C(=O)Nc1ccccc1` (stereo not drawn), the EC50 was more than 200 µM and the IC50 is 170 µM.

Take `N#C/C(C(=S)Nc1ccc(Cl)cc1)=C1/Nc2ccccc2O1`: the EC50 was more than 200 µM and the IC50 came to 37.2 µM. For `CCN1CCC(O)(c2ccccc2)C(C(=O)c2ccccc2)C1` (stereo not drawn), in that order: more than 646 µM and 33.9 µM. As to `CCC[CH2][Sn]([CH2]CCC)([O]N(C)C(=O)c1ccc(Br)cc1)[O]N(C)C(=O)c1ccc(Br)cc1`, the EC50 was more than 10.5 µM and the IC50 came to 1.78 µM. The like results for `CC(=O)[C@H]1CC[C@H]2[C@@H]3C=CC4=CC(=O)CC[C@@]4(C)[C@@H]3CC[C@]12C` were, in that order, more than 126 µM and 79.4 µM. For `O=C(CC(CC(=O)Oc1c(Br)cc(Br)cc1C(=O)O)C(=O)Oc1c(Br)cc(Br)cc1C(=O)O)Oc1c(Br)cc(Br)cc1C(=O)O`, in that order: more than 245 µM and 85.1 µM. For `CC(=O)Oc1cc(C)c2c(c1)CCC1C3CCC(OC(C)=O)C3(C)CC(O[N+](=O)[O-])C21O` (stereo not drawn), in that order: more than 200 µM and more than 200 µM.

Regarding `CCCCCCCCCc1cc(=O)c2ccc(O)cc2o1`, the EC50 was more than 1.91 µM and the IC50 is more than 1.91 µM.

In the case of `CCOC(=O)CC1CN(Cc2ccccc2)CCC1=O` (stereo not drawn), the outcome was inactive. For the compound `Cc1ccc(C(=O)Nc2ccc(S(=O)(=O)O)c3cc(S(=O)(=O)O)cc(S(=O)(=O)O)c23)cc1N`, the EC50 was more than 200 µM and the IC50 was more than 200 µM.

Turning to `Cc1ccc(C(=O)CC2=Nc3nnc(CCCCCCCc4nnc5n4C(=O)C(CC(=O)c4ccc(C)cc4)=N5)n3C2=O)cc1`, the EC50 is more than 2.4 µM and the IC50 is more than 2.4 µM. Consider `O=[N+]([O-])c1cc(C=NC23CC4CC(CC(C4)C2)C3)ccc1Cl`, for which the EC50 was more than 200 µM and the IC50 is 3.72 µM. With `Cc1nc2cccc(F)c2c(=O)n1-c1nnc(C(F)(F)F)s1`, the EC50 was more than 200 µM and the IC50 stood at 4.47 µM. As to `c1ccc(N/N=C2\NN=C(c3ccccc3)CS2)cc1`, the EC50 was more than 66.1 µM and the IC50 was determined as 35.5 µM. Turning to `O=c1ncccn1C1OC(CO)C(O)C1F` (stereo not drawn), the result was inactive. For `CCN(CC)C(=O)C1=C(C)NC(C)=C(C(=O)N(CC)CC)C1`, the EC50 is more than 200 µM and the IC50 is 61.7 µM. The like results for `C=CCn1c(N)c(C#N)c(C#N)c1CCC` were, in that order, more than 200 µM and more than 200 µM. The like results for `COC1/C=C/OC2(C)Oc3c(C)c(O)c4c(O)c(c(/C=N/N5C(C)CN(Cc6ccc(C)cc6)CC5C)c(O)c4c3C2=O)NC(=O)C(C)=C/C=C/C(C)C(O)C(C)C(O)C(C)C(OC(C)=O)C1C` (stereo not drawn) were, in that order, more than 200 µM and 3.89 µM. For `O=c1[nH]c(-c2ccccc2)nc2cc(Cl)ccc12`, the result was inactive.

On to `Cc1ccnc2c1C(=O)C1=C(OC(C)(C)CC1O)C2=O` (stereo not drawn), for which the EC50 is more than 200 µM and the IC50 turned out to be 10.7 µM. Take `CCNC1CC(C(C)(C)NCC)CC=C1C` (stereo not drawn): the EC50 is more than 224 µM and the IC50 was more than 224 µM.

As to `Cc1occc1C(=S)Nc1ccc(Cl)c(OCC(=O)OC(C)(C)C)c1`, the EC50 is 12.9 µM and the 50% inhibitory concentration (IC50) is 28.2 µM. For `COc1cc(CNc2nc3c(N)cc(C(F)(F)F)cc3nc2-c2ccccc2)cc(OC)c1OC`, in that order: more than 20.4 µM and more than 20.4 µM. In the case of `COC(=O)C([C@H]1CC[C@H](OCc2ccccc2)[C@@]1(O)COCc1ccccc1)C(C)(O)CCc1ccccc1` (stereo partly drawn), the outcome was inactive.

Turning to `COC(=O)c1ccc(N=Cc2ccc(C=Nc3ccc(C(=O)OC)cc3)cc2)cc1`, the EC50 is more than 12.9 µM and the 50% inhibitory concentration (IC50) is more than 12.9 µM. In the case of `Cn1[nH]c(=O)ccc1=O`, the EC50 is more than 2000 µM and the IC50 amounted to 1780 µM. Regarding `CCOC(=O)C(Cl)(NC(=O)OCc1ccccc1)C(F)(F)F` (stereo not drawn), the result was inactive.

Turning to `CC(=O)OC1CC2CCC3C(CCC4(C)C3CC([N+]3(C)CCCCC3)C4OC(C)=O)C2(C)CC1[N+]1(C)CCCCC1` (stereo not drawn), the EC50 was more than 200 µM and the IC50 is more than 200 µM. Turning to `COCCOC(=O)NCn1cc(-c2ccccc2)nn1`, the EC50 was more than 200 µM and the IC50 was more than 200 µM. As for `[N-]=[N+]=NC1CC(n2cc(COCC(F)(F)F)c(=O)[nH]c2=O)OC1CO` (stereo not drawn), the EC50 was 5.75 µM and the IC50 was determined as 251 µM. The like results for `S=c1n(-c2ccc(Cl)cc2)c2nc3ccccc3nc(/c2=N\Nc2ccccc2)n1-c1ccccn1` were, in that order, more than 37.2 µM and 29.5 µM. With `N#CNC(N)=NCCO`, the EC50 was more than 692 µM and the IC50 was more than 692 µM. As to `CC(=O)NC(CCC(=O)c1ccc(C)cc1)(C(=O)O)C(=O)O`, the EC50 is more than 200 µM and the IC50 is more than 200 µM.

On to `COC(=O)c1cc(C(=C2CC2)c2cc(Br)c(OC)c(C(=O)OC)c2)cc(Br)c1OC`, for which the EC50 is more than 200 µM and the IC50 amounted to 14.1 µM.

With `COc1ccccc1/C=C(\NC(=O)c1ccccc1)c1nc2ccc(Cl)cc2[nH]1`, the EC50 was more than 46.8 µM and the IC50 was more than 46.8 µM. On to `Cc1cc(C)n(-c2nc3ccccc3c(=O)n2-c2ccccc2)n1`, for which the EC50 was more than 200 µM and the 50% inhibitory concentration (IC50) was more than 200 µM. On to `CC1(C)O[C@@H](CCl)C[C@@H](C#N)O1`, for which the outcome was inactive.

On to `CCOC(=O)C1S(=O)(=O)OCCOS1(=O)=O`, for which the EC50 was more than 5750 µM and the IC50 was found to be 3470 µM. The like results for `CCOC(=O)C12c3[nH]c4ccccc4c3CCN1CC1=NOC(=O)C12` (stereo not drawn) were, in that order, more than 132 µM and more than 132 µM. In the case of `CCCC(=O)NC(Nc1cc(C)ccn1)(C(=O)OCC)C(F)(F)F` (stereo not drawn), the EC50 was 105 µM and the IC50 amounted to 501 µM. For `CCN(CC)CCn1ccc(=O)c2cc3c(=O)ccn(CCN(CC)CC)c3c(C)c21`, in that order: more than 17 µM and 0.676 µM.

For the compound `S=C1Cc2c(-c3ccccc3)cc(-c3cccc(Cl)c3)nc2-c2ccccc2N1`, the outcome was inactive. For `C=C1c2nc3ccccc3n2C=C(c2ccc(C)cc2)N1c1ccc(C)cc1`, the EC50 was more than 200 µM and the IC50 was determined as 26.9 µM. As to `COC(=O)c1ccc2c(O)c(O)ccc2c1`, the EC50 is more than 200 µM and the IC50 was found to be 3.16 µM. On to `CCOC(=O)C(C)(C)Oc1ccc2c(=O)cc(-c3ccccc3)oc2c1`, for which the EC50 was more than 53.7 µM and the IC50 was 36.3 µM. On to `O=C1CCC(=O)C(C(=O)CCC(=O)Nc2ccc(Cl)cc2)C1` (stereo not drawn), for which the outcome was inactive. For the compound `C[N+]1(Cc2ccco2)CCCCC1`, the EC50 is more than 813 µM and the concentration for half-maximal inhibition (IC50) is more than 813 µM. On to `O=C1c2cc([N+](=O)[O-])ccc2-c2c(S)cccc21`, for which the EC50 is more than 200 µM and the IC50 is 50.1 µM. The like results for `C[C@H](CS)C(=O)N1c2ccccc2C[C@H]1C(=O)O` were, in that order, more than 200 µM and more than 200 µM. Consider `CCCN(CCC)C(=O)c1c([N+](=O)[O-])cc(C(F)(F)F)cc1[N+](=O)[O-]`, for which the outcome was inactive. As to `COC(=O)C1=C(c2ccccc2)ON2C(C)(C)COC12C` (stereo not drawn), the EC50 was more than 200 µM and the IC50 is more than 200 µM.

One may read the EC50 as the midpoint of the concentration-response curve. The IC50 is the concentration needed to halve the response being measured. Read a low IC50 as greater potency.
